Results from article PMC11992225, “Antibacterial compounds against non-growing and intracellular bacteria” (npj Antimicrobials and Resistance, 2025).
In brackets after ≈: the same amount, converted by molar mass.

Legend:
[1] = tested on: non-growing UPEC CFT073; experiment: Dilution-regrowth assay (screen, hit validation, dose-response) on stationary-phase UPEC; type: cell-based, Escherichia coli
Procedure: (§1) The cultures were incubated for 24 h in non-baffled Erlenmeyer flasks at 37 °C with shaking at 200 rpm.
The high-throughput screening (HTS) procedure was based on the protocol by Hazan and colleagues[15] and conducted at the Chemical Biology Consortium Sweden (CBCS) screening facility. […] Each plate included eight wells with 200 nl of 10 mM gatifloxacin, finafloxacin, and kanamycin solutions, along with 8-wells containing 200 nl of DMSO as controls. After 24 h incubation,100 μl of the culture was dispensed into each well of the 384-well plates for screening at a final concentration of 20 μM. The plates were sealed with parafilm and incubated at 37 °C for 24 h in closed humidified boxes, with wet paper towels added to prevent evaporation. […] The plates were incubated at 37 °C for 6 h in humidified boxes, then OD600 was measured using a microplate reader.
For hit validation, bacteria were cultivated, and the dilution-regrowth assay was conducted following the same protocol used in the primary screen. Hit compounds were dispensed into 384-well plates using the Echo® (Labcyte) system, with 200, 100, or 50 nl of a 10 mM solution in DMSO added per well, yielding final screening concentrations of 20, 10, and 5 μM, respectively. OD600 values of regrowing samples were normalized to the mean OD600 of the drug-free control. The testing was conducted in two replicates.
For UPEC, dose–response analysis was conducted at the CBCS screening facility. Bacteria were cultivated, and the dilution-regrowth assay was performed according to the HTS protocol. Compounds were dispensed into 384-well plates using the Echo® (Labcyte) system, and regrowth was assessed by measuring OD600 after 6 h of incubation at 37 °C in humidified boxes. Three biological replicates were performed.
(§2) Statistical significance of the drug effects was assessed using a one-way ANOVA followed by Dunnett’s test, comparing each treatment to the drug-free control. Statistical significance of the differences in chemical characteristics between the hit compounds and the Prestwick library was assessed using a Mann–Whitney test. Statistical significance was set at P ≤ 0.05. A five-parameter logistic equation was used for asymmetric sigmoidal curve fitting and for EC50 and IC50 determination. The Venn diagram in Fig. 1F was prepared using BioVenn web application. Characteristics of the chemical and physical properties of Prestwick library compounds were obtained from Supplementary Table S1 from reference. Characteristics of the hit compounds not included in the Prestwick library were retrieved from the PubChem database.

[2] = tested on: E. coli CFT073 and BW25113; experiment: Semapimod assay: killing and regrowth of stationary-phase E. coli in two media; type: cell-based, Escherichia coli; conditions: 1% LB diluted in PBS, 20 and 50 μM, 24 h
Procedure: E. coli CFT073 and BW25113 were grown in 3 ml of LB at 37 °C, shaking at 200 rpm for 16 h. The overnight cultures were then diluted either 1:100 into 40 ml of 1:4 diluted CA-MHB (40 mM HEPES, pH 7.4) or 1:10,000 into 40 ml of 1% LB in PBS and grown in 125 mL Erlenmeyer flasks for 24 h at 37 °C, shaking at 200 rpm. Following this, 1 ml aliquots of each culture were transferred to 1.5 ml test tubes, and semapimod was added at final concentrations of 20 μM and 50 μM. DMSO was added to drug-free controls. To quantify live bacteria before treatment, a sample of each culture was serially 10-fold diluted into PBS, and 10 μL drops were spot-plated onto LB agar. The closed test tubes were incubated for 24 h at 37 °C without shaking.
After treatment, the samples were diluted 2500-fold in two steps: a 50-fold dilution into PBS, followed by a 50-fold dilution into CA-MHB in a 96-well plate with a total volume of 200 μl per well. The 96-well plate was then incubated in a BioTek Synergy H1 plate reader at 37 °C with continuous shaking at medium speed for 22 h with a lid. OD600 was recorded every 20 min. Additionally, the treated samples were diluted 1:200 into LB in another 96-well plate and incubated in a BioTek Synergy Mx plate reader at 37 °C without shaking for 22 h, with OD600 recorded every hour. […]

[3] = tested on: S. aureus DSM2569; experiment: MIC, standard microdilution assay, growing S. aureus; type: cell-based, Staphylococcus aureus; conditions: Staphylococcus aureus, DSM2569; S. aureus; CA-MHB pH 7.4; read-out: MIC (μM) CA-MHB
Procedure: (§3) Minimal inhibitory concentrations (MICs) were determined using a standard microdilution assay protocol. CA-MHB medium buffered with 40 mM HEPES (pH 7.4) was used to determine the MICs for UPEC, P. aeruginosa, and S. aureus. […] MICs for UPEC were also determined in LPM buffered with 30 mM MES (pH 5.5). For S. flexneri, MICs were determined in tryptic soy broth (TSB). The assay was performed in triplicates.

[4] = tested on: P. aeruginosa DSM1117; experiment: MIC, standard microdilution assay, growing P. aeruginosa; type: cell-based, Pseudomonas aeruginosa; conditions: Pseudomonas aeruginosa, DSM1117; P. aeruginosa; CA-MHB pH 7.4; read-out: MIC (μM) CA-MHB
Procedure: as §3

[5] = tested on: E. coli CFT073 (UPEC); experiment: MIC, standard microdilution assay, growing UPEC; type: cell-based, Escherichia coli; conditions: Escherichia coli; E. coli, pH 7.4; CA-MHB; read-out: MIC (μM) CA-MHB
Procedure: as §3

[6] = tested on: non-growing S. aureus DSM2569; experiment: Dilution-regrowth assay (OD600, start-growth-time) on stationary-phase S. aureus; type: cell-based, Staphylococcus aureus; conditions: S. aureus
Procedure: The cultures were grown and treated for 24 h in 1:4 CA-MHB (pH 7.4).
This approach allowed us to capture the time when cultures reached a threshold optical density (start-growth-time, SGT[15]).
as §1
For P. aeruginosa and S. aureus, dose–response analysis was conducted in 96-well plates with a 200 μl assay volume, following the procedure used for screening assay validation experiments. […] Stock solutions were prepared and stored according to the manufacturers’ instructions, then diluted in 10% DMSO before use. Cultures were incubated for 24 h in 1:4 diluted CA-MHB medium under the same conditions used for UPEC cultivation. In preliminary experiments, each compound was tested at a concentration of 20 μM in the dilution-regrowth assay with 4 technical replicates. Regrowth was monitored using a microplate reader at 37 °C with continuous shaking, and OD600 was recorded every 20 min. The time at which OD600 exceeded the threshold of 0.12 was recorded as the Start_Growth-Time.
as §2

[7] = tested on: S. flexneri 5a M90T; experiment: MIC in tryptic soy broth, S. flexneri; type: cell-based, Shigella flexneri; conditions: Shigella flexneri, 5AM90T, read-out: MIC (μM) TSB
Procedure: as §3

[8] = tested on: TC7 cells; experiment: TC7 cell viability upon drug exposure, MTS assay; type: cell-based; conditions: at the MIC concentrations, 12 h, no bacteria
Procedure: TC7 cells were grown to confluence in transparent 96-well cell culture plates (TPP) in the same cell culture medium used for the in vitro infection assay. Just prior to the experiment, the medium was discarded, and the cells were washed twice with sterile PBS to remove any traces of medium or dead cells. […] The plate was incubated at 37 °C in a CO2 incubator for 12 h, under the same conditions as the infection assay.
The 3-(4,5-dimethylthiazol-2-yl)-5-(3-carboxymethoxyphenyl)-2-(4-sulfophenyl)-2H-tetrazolium (MTS) assay was performed using the CellTiter 96® AQueous One Solution Cell Proliferation Assay kit (Promega), according to the manufacturer’s instructions. Briefly, 20 μl of CellTiter 96 AQueous One Solution Reagent was added to each well, and the plate was incubated for 2 h at 37 °C in a CO2 incubator. The OD490 of the samples was measured using a Spark multimode plate reader (Tecan). The raw values were normalized to the control wells incubated with infection buffer only. The experiment was performed in duplicate.

C/C(=N\NC(=N)N)c1cc(NC(=O)CCCCCCCCC(=O)Nc2cc(/C(C)=N/NC(=N)N)cc(/C(C)=N/NC(=N)N)c2)cc(/C(C)=N/NC(=N)N)c1 [semapimod]
activity in the dilution-regrowth screen ([1]; non-growing UPEC, 20 μM): not among our hits | bactericidal activity on stationary-phase E. coli [2]: strong bactericidal activity

[H]/N=C(\N/C(=N/[H])NCCCCCCNC(=N)NC(=N)Nc1ccc(Cl)cc1)Nc1ccc(Cl)cc1 [Chlorhexidine]
Regrowth, OD600 at 6h or 8h after dilution into drug-free medium (average) ([1]; E. coli in 1:4 CA-MHB (pH 7.4), drug concentration 0.25): 0.634 | Regrowth, OD600 at 6h or 8h after dilution into drug-free medium (average) ([1]; E. coli in 1:4 CA-MHB (pH 7.4), drug concentration 0.5): 0.632 | Regrowth, OD600 at 6h or 8h after dilution into drug-free medium (average) ([1]; E. coli in 1:4 CA-MHB (pH 7.4), drug concentration 1): 0.646 | Regrowth, OD600 at 6h or 8h after dilution into drug-free medium (average) ([1]; E. coli in 1:4 CA-MHB (pH 7.4), drug concentration 2.5): 0.634 | Regrowth, OD600 at 6h or 8h after dilution into drug-free medium (average) ([1]; E. coli in 1:4 CA-MHB (pH 7.4), drug concentration 5): 0.636 | Regrowth, OD600 at 6h or 8h after dilution into drug-free medium (average) ([1]; E. coli in 1:4 CA-MHB (pH 7.4), drug concentration 10): 0.585 | Regrowth, OD600 at 6h or 8h after dilution into drug-free medium (average) ([1]; E. coli in 1:4 CA-MHB (pH 7.4), drug concentration 30): 0.062 | Regrowth, OD600 at 6h or 8h after dilution into drug-free medium (average) ([1]; E. coli in LPM (pH 5.5), drug concentration 0.25): 0.602 | Regrowth, OD600 at 6h or 8h after dilution into drug-free medium (average) ([1]; E. coli in LPM (pH 5.5), drug concentration 0.5): 0.598 | Regrowth, OD600 at 6h or 8h after dilution into drug-free medium (average) ([1]; E. coli in LPM (pH 5.5), drug concentration 1): 0.611 | Regrowth, OD600 at 6h or 8h after dilution into drug-free medium (average) ([1]; E. coli in LPM (pH 5.5), drug concentration 2.5): 0.608 | Regrowth, OD600 at 6h or 8h after dilution into drug-free medium (average) ([1]; E. coli in LPM (pH 5.5), drug concentration 5): 0.621 | Regrowth, OD600 at 6h or 8h after dilution into drug-free medium (average) ([1]; E. coli in LPM (pH 5.5), drug concentration 10): 0.624 | Regrowth, OD600 at 6h or 8h after dilution into drug-free medium (average) ([1]; E. coli in LPM (pH 5.5), drug concentration 30): 0.633 | EC50 ([1]; Escherichia coli, E. coli, pH 7.4, regrowth delay of non-growing bacteria, 1:4 CA-MHB, 24 h treatment, OD600 6 h after 2500-fold dilution, read-out: EC50): 17.5 µM | activity against non-growing UPEC in LPM (pH 5.5) compared to 1:4 CA-MHB (pH 7.4) ([1]; regrowth delay and killing, Figs. 2 and 3): active at pH 7.4 and completely inactive in the acidic medium | MIC [3]: 2 µM (≈ 1.01 µg/mL) | MIC [4]: 8 µM (≈ 4.04 µg/mL) | MIC [5]: 1 µM (≈ 0.505 µg/mL) | Regrowth, OD600 at 6h or 8h after dilution into drug-free medium (average) ([6]; drug concentration 0.1): 0.684 | Regrowth, OD600 at 6h or 8h after dilution into drug-free medium (average) ([6]; drug concentration 0.5): 0.683 | Regrowth, OD600 at 6h or 8h after dilution into drug-free medium (average) ([6]; drug concentration 2.5): 0.676 | Regrowth, OD600 at 6h or 8h after dilution into drug-free medium (average) ([6]; drug concentration 10): 0.247 | EC50 ([6]; Staphylococcus aureus, DSM2569, regrowth delay of non-growing bacteria, 1:4 CA-MHB pH 7.4, 24 h treatment, OD600 8 h after dilution, read-out: EC50): 19.4 µM | MIC [7]: 1 µM (≈ 0.505 µg/mL) | toxicity to TC7 epithelial cells [8]: toxic
